Reference: PubChem BioAssay (NCI)
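Values below derive from 48-hour exposures of cells grown in 96-well plates, with endpoints linearly interpolated between the two concentrations bracketing the appropriate inhibition level. GI50 = concentration required for 50% inhibition of growth. TGI is the concentration that stops growth completely.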

Assays:
Experiment in all cases: NCI-60 cell line screen, 48 h
A498 renal = test system: A498 renal
A549 NSCLC = test system: A549 NSCLC
ACHN renal = test system: ACHN renal
COLO 205 colon = test system: COLO 205 colon
MCF7 breast = test system: MCF7 breast
NCI-H522 lung = test system: NCI-H522 lung
OVCAR-3 ovarian = test system: OVCAR-3 ovarian
PC-3 prostate = test system: PC-3 prostate
SK-MEL-5 melanoma = test system: SK-MEL-5 melanoma
UO-31 renal = test system: UO-31 renal

SMILES | GI50 (A498 renal) | TGI (A498 renal) | GI50 (A549 NSCLC) | TGI (A549 NSCLC) | GI50 (ACHN renal) | TGI (ACHN renal) | GI50 (COLO 205 colon) | TGI (COLO 205 colon) | GI50 (MCF7 breast) | TGI (MCF7 breast) | GI50 (NCI-H522 lung) | TGI (NCI-H522 lung) | GI50 (OVCAR-3 ovarian) | TGI (OVCAR-3 ovarian) | GI50 (PC-3 prostate) | TGI (PC-3 prostate) | GI50 (SK-MEL-5 melanoma) | TGI (SK-MEL-5 melanoma) | GI50 (UO-31 renal) | TGI (UO-31 renal)
COC(=O)c1sc(-n2cnc3cc(OC)c(OC)cc32)cc1OCc1ccccc1C(F)(F)F | 0.513 µM | > 25 µM | > 25 µM | > 25 µM | > 25 µM | > 25 µM | > 25 µM | > 25 µM | > 25 µM | > 25 µM | 17.7 µM | > 25 µM | > 25 µM | > 25 µM | > 25 µM | > 25 µM | > 25 µM | > 25 µM | > 25 µM | > 25 µM
CC1CCc2c(C(=O)Nc3ncc(Cc4cccc([N+](=O)[O-])c4)s3)csc2C1 (centres undefined) | 0.267 µM | 0.864 µM | 0.944 µM | > 100 µM | 0.937 µM | > 100 µM | 0.37 µM | 19.6 µM | 0.268 µM | > 100 µM | 0.387 µM | – | 0.391 µM | 2.25 µM | 0.618 µM | > 100 µM | 0.476 µM | > 100 µM | 0.815 µM | > 100 µM
